Source: ChEMBL document CHEMBL1201862, “PubChem BioAssay data set” (2004)
Active and inactive are the calls of the source. Unless noted, the rule behind the calls is not given here.

Columns and labels:
[1] = molecular target: T1, Tyrosine-protein phosphatase non-receptor type 22 (Homo sapiens, UniProt Q9Y2R2); assay: PubChem AID 2135
T1 sequence (Q9Y2R2 whole entry): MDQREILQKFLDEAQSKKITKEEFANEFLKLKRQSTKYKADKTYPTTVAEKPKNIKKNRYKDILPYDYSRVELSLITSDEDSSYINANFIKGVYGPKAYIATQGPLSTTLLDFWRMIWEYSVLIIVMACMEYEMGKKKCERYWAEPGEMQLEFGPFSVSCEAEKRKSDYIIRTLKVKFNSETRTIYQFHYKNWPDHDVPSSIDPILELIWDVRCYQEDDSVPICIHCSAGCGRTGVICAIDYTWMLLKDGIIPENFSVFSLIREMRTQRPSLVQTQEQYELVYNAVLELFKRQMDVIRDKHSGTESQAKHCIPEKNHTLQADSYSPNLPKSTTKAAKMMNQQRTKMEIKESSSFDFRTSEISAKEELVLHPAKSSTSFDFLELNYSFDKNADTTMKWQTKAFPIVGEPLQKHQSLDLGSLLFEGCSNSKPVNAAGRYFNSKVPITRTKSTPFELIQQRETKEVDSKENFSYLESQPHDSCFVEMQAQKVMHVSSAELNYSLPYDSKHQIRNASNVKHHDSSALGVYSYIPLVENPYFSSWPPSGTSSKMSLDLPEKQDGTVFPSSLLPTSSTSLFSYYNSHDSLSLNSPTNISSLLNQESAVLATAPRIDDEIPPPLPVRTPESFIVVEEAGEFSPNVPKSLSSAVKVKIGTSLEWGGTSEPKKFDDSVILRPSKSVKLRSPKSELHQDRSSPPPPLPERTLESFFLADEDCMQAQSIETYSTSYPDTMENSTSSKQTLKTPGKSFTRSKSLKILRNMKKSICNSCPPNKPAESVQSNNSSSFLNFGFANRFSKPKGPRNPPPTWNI

[2] = molecular target: T2, Apoptotic protease-activating factor 1 (Homo sapiens, UniProt O14727); assay: activation of Apaf-1 mediated apoptosis – fluorescent, uHTS hits, dose response (AID 588554); type: functional
T2 sequence (O14727 whole entry): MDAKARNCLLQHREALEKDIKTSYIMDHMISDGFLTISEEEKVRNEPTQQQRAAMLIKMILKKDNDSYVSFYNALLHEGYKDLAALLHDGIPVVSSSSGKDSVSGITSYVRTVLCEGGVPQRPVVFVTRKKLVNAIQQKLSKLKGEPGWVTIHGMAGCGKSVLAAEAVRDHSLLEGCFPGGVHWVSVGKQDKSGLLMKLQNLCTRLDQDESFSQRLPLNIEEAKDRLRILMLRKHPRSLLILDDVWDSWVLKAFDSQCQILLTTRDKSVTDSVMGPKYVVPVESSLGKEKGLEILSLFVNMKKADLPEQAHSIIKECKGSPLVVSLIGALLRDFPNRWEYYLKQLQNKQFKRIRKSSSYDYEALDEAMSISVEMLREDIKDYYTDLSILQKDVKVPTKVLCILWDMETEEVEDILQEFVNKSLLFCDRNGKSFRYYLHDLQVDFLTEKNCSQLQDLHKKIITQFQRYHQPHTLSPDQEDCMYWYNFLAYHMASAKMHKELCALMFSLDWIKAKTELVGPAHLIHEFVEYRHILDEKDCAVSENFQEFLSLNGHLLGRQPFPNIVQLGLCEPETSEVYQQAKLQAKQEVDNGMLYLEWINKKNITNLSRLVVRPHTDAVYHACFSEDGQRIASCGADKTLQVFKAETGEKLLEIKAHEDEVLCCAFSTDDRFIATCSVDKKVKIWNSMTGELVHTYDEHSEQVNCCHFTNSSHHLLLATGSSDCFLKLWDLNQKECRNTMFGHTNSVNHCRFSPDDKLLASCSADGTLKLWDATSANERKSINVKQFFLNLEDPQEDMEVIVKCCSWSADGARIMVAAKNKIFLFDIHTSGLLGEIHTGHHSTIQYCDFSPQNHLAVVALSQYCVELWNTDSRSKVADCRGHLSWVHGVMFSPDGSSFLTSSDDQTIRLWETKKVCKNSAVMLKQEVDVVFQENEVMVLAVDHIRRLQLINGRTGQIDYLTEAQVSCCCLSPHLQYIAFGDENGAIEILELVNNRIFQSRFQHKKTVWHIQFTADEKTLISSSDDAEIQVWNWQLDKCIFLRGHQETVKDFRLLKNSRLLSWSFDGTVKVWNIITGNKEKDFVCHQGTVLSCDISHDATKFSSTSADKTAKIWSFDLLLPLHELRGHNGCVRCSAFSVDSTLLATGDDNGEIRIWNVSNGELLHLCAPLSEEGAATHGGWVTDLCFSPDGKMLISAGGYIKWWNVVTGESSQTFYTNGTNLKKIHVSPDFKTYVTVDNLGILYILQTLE

Protein RecA = molecular target: T3, Protein RecA (Mycobacterium tuberculosis, UniProt P9WHJ3); assay: Fluorescence Cell-Free Homogeneous Dose Retest to Identify Inhibitors of RecA-Intein Splicing Activity. [Related pubchem assays (depositor defined):AID2097, AID2223, AID489010, AID492950]; type: functional
T3 sequence (P9WHJ3 whole entry): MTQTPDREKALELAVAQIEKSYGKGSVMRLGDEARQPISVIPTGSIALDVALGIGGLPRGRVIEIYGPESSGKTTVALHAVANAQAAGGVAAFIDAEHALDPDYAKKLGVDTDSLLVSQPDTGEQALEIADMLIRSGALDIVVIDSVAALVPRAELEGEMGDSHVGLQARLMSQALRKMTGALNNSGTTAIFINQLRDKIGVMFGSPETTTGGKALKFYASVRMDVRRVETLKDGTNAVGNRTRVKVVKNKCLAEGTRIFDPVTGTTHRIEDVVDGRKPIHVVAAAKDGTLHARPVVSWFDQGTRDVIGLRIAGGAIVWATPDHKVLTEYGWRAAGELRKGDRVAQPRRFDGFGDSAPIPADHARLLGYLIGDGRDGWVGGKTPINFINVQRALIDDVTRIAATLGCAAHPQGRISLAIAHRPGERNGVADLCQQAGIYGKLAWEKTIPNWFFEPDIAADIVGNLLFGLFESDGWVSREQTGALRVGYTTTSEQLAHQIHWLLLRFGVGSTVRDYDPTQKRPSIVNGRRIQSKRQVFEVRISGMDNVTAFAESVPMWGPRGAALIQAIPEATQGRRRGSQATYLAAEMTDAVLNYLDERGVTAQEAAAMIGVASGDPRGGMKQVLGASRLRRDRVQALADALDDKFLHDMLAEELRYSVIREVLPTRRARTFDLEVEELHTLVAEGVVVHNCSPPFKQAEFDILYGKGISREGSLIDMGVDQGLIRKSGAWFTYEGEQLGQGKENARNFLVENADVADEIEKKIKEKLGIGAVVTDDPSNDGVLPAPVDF

Compound	IC50 [1]	EC50 [2]	EC50 (Protein RecA)
COc1ccc(/C=C2\SC(=S)N(CCC(=O)Nc3ccc(C(=O)O)cc3)C2=O)cc1OC	2.96 µM (active)	9.36 µM (active)	–
COc1ccc(Nc2ccc3c(c2)=NC2(CCCCC2)[N+]=3[O-])cc1	–	–	4.39 µM (active)
